Results reported in ChEMBL document CHEMBL5029183 (J Med Chem, 2021).
Active and inactive are the calls of the source.

Key:
Mus musculus [1] = assay: Antinociceptive activity in icv dosed Kunming mouse model assessed as increase in paw withdrawal latency by radiant heat paw withdrawal assay; format: functional; details: dose 0.67-20 nmol
Mus musculus [2] = species on record: Mus musculus; assay: Antinociceptive tolerance in Kunming mouse pretreated with 3 times ED50 of compound for 2 hrs followed by challenge with second dose of compound by radiant heat paw withdrawal test; format: functional
Mus musculus [3] = assay: Antinociceptive activity in Kunming mouse model assessed as increase in paw withdrawal latency at 0.67 to 20 nmol, icv measured after 5 mins by radiant heat paw withdrawal assay; format: functional, organism-based; details: dose 0.67-20 nmol
[4] = Metabolic stability in Kunming mouse serum assessed as half life measured upto 480 mins by RP-HPLC analysis; format: ADME, cell-free
[5] = Toxicity in Kunming mouse model assessed as conditioned place preference time at 10 micromol/kg, sc; details: in vivo, dose 10 µmol/kg
[6] = Toxicity in Kunming mouse assessed as inhibition of gastrointestinal transit at 10 micromol/kg, sc by charcoal meal test (reference value: 70.3 +/- 3 %); format: organism-based; parameters: scale not given: the % may be the effect or the level left; details: in vivo
[7] = Metabolic stability in Kunming mouse brain assessed as half life measured upto 480 mins by RP-HPLC analysis; format: ADME, tissue-based
[8] = Toxicity in Kunming mouse model assessed as conditioned place preference time at 20 nmol, icv; details: in vivo, icv_or_intrathecal
Ileum = assay: Inhibition of electric-field induced guinea pig ileum contraction; format: functional, tissue-based; details: Cavia porcellus
Mus musculus [9] = assay: Antinociceptive activity in Kunming mouse model assessed as increase in paw withdrawal latency at 20 nmol, icv pretreated for 20 mins with naloxonazine followed by compound addition and measured upto 10 mins by radiant heat paw withdrawal assay; format: functional, organism-based; details: time min <=10
[10] = Toxicity in icv dosed Kunming mouse assessed as inhibition of gastrointestinal transit by measuring charcoal distance travel by charcoal meal test; format: organism-based; details: in vivo, icv_or_intrathecal, dose 0.67-6.7 nmol
Mus musculus [11] = assay: Chronic antinociceptive tolerance in Kunming mouse pretreated with compound followed by repeated compound addition at 20 nmol, icv once daily for 7 days and measured after 5 mins by radiant heat paw withdrawal test; format: functional, organism-based; details: time 7.0 day
Mus musculus [12] = assay: Antinociceptive activity in Kunming mouse model assessed as increase in paw withdrawal latency at 20 nmol, icv pretreated for 30 mins with nor-BNI followed by compound addition and measured upto 10 mins by radiant heat paw withdrawal assay; format: functional, organism-based; details: time min <=10
Mus musculus [13] = species on record: Mus musculus; assay: Antinociceptive tolerance in Kunming mouse pretreated with saline for 2 hrs followed by compound addition by radiant heat paw withdrawal test; format: functional
Mus musculus [14] = assay: Antinociceptive activity in Kunming mouse model assessed as increase in paw withdrawal latency at 20 nmol, icv pretreated for 10 mins with naloxone followed by compound addition and measured upto 10 mins by radiant heat paw withdrawal assay; format: functional, organism-based; details: time min <=10
Vas deferens = assay: Inhibition of electric-field induced mouse vas deferens contraction; format: functional, tissue-based
Mus musculus [15] = assay: Antinociceptive activity in Kunming mouse model assessed as increase in paw withdrawal latency at 20 nmol, icv pretreated for 4 hrs with beta-FNA followed by compound addition and measured upto 10 mins by radiant heat paw withdrawal assay; format: functional, organism-based; details: time min <=10
Mus musculus [16] = assay: Antinociceptive activity in Kunming mouse model assessed as increase in paw withdrawal latency at 0.67 to 20 nmol, icv measured after 20 mins by radiant heat paw withdrawal assay; format: functional, organism-based; details: dose 0.67-20 nmol
Mus musculus [17] = assay: Antinociceptive activity in Kunming mouse model assessed as increase in paw withdrawal latency at 10 micromol/kg, sc by radiant heat paw withdrawal assay; format: functional, organism-based; details: dose 10.0 µmol/kg
Mus musculus [18] = assay: Antinociceptive activity in Kunming mouse model assessed as increase in paw withdrawal latency at 0.67 to 20 nmol, icv by radiant heat paw withdrawal assay; format: functional, organism-based; details: dose 0.67-20 nmol, TDE = time-dependent effect
Mus musculus [19] = assay: Chronic antinociceptive tolerance in Kunming mouse pretreated with compound followed by repeated compound addition at 20 nmol, icv once daily for 7 days and measured after 15 mins by radiant heat paw withdrawal test; format: functional, organism-based; details: time 7.0 day
[20] = Toxicity in Kunming mouse assessed as effect on motor coordination at 20 nmol, icv by rotarod test; details: in vivo, icv_or_intrathecal
Mus musculus [21] = assay: Antinociceptive activity in Kunming mouse model assessed as maximum possible effect at 10 micromol/kg, sc by radiant heat paw withdrawal assay; format: functional; details: dose 10 µmol/kg
Mus musculus [22] = assay: Chronic antinociceptive tolerance in Kunming mouse pretreated with compound followed by repeated compound addition at 10 micromol/kg, sc once daily for 7 days and measured after 20 mins by radiant heat paw withdrawal test; format: functional, organism-based; details: dose 10.0 µmol/kg, time 7.0 day
[23] = Toxicity in Kunming mouse assessed as effect on motor coordination at 10 micromol/kg, sc by rotarod test; format: organism-based; details: in vivo, dose 10 µmol/kg
Mus musculus [24] = assay: Antiallodynic activity in Kunming mouse model of spared nerve injury-induced neuropathic pain assessed as increase in paw withdrawal threshold at 10 micromol/kg, sc measured at 20 to 50 mins by von Frey test; format: functional, organism-based; details: dose 10.0 µmol/kg, time 20-50 min
[25] = target: Delta-type opioid receptor (Rattus norvegicus, UniProt P33533); assay: Displacement of [3H]DPDPE from DOR in Wistar rat brain membranes measured after 3 hrs by scintillation counting method; format: cell membranes, Membrane
Rattus norvegicus [26] = species on record: Rattus norvegicus; assay: Selectivity index, ratio of Ki for displacement of [3H]DPDPE from DOR in Wistar rat brain membranes to Ki for displacement of [3H]DAMGO from MOR in Wistar rat brain membranes; format: cell membranes
[27] = target: Delta-type opioid receptor (Homo sapiens) (UniProt P41143); assay: Agonist activity at delta-opioid receptor (unknown origin) expressed in HEK293 cells assessed as inhibition of forskolin-induced cAMP accumulation incubated for 15 mins by ELISA; format: functional, cell-based
Mu-type opioid receptor [28] = target: T1, Mu-type opioid receptor (Homo sapiens, UniProt P35372); assay: Agonist activity at mu-opioid receptor (unknown origin) expressed in HEK293 cells assessed as inhibition of forskolin-induced cAMP accumulation incubated for 15 mins by ELISA; format: functional, cell-based
Mu-type opioid receptor [29] = target: Mu-type opioid receptor (Rattus norvegicus, UniProt P33535); assay: Displacement of [3H]DAMGO from MOR in Wistar rat brain membranes measured after 1 hr by scintillation counting method; format: cell membranes, Membrane
[30] = target: Kappa-type opioid receptor (Homo sapiens) (UniProt P41145); assay: Agonist activity at kappa-opioid receptor (unknown origin) expressed in HEK293 cells assessed as inhibition of forskolin-induced cAMP accumulation incubated for 15 mins by ELISA; format: functional, cell-based
Rattus norvegicus [31] = species on record: Rattus norvegicus; assay: Selectivity index, ratio of Ki for displacement of [3H]-U69593 from KOR in Wistar rat brain membranes to Ki for displacement of [3H]DAMGO from MOR in Wistar rat brain membranes; format: cell membranes
Mu-type opioid receptor [32] = target: T1, Mu-type opioid receptor; assay: Agonist activity at mu-opioid receptor (unknown origin) expressed in HEK293 cells assessed as inhibition of forskolin-induced cAMP accumulation incubated for 15 mins by ELISA relative to control; format: functional, cell-based; details: filed as agonist

T1 sequence (P35372 whole entry): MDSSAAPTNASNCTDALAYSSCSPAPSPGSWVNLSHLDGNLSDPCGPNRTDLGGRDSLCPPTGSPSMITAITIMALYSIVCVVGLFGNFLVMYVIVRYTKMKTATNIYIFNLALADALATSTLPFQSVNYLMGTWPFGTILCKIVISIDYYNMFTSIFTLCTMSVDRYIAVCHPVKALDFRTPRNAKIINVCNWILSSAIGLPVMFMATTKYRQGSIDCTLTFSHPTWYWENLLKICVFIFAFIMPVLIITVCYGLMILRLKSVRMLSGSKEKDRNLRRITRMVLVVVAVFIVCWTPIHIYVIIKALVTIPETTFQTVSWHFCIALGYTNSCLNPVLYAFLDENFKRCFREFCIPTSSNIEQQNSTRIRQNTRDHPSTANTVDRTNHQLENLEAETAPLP
Kappa-type opioid receptor (Homo sapiens), sequence (P41145 whole entry): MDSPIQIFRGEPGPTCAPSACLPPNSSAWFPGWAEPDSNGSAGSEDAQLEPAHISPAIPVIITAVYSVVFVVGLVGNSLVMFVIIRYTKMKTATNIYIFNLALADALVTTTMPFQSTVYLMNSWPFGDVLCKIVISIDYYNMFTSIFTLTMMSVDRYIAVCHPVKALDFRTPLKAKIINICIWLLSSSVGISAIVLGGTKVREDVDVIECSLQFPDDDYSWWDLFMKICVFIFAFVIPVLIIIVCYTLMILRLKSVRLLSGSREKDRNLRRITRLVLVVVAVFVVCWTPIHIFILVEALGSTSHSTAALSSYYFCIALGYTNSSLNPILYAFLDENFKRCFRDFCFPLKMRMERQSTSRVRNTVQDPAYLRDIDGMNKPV
Delta-type opioid receptor (Homo sapiens), sequence (P41143 whole entry): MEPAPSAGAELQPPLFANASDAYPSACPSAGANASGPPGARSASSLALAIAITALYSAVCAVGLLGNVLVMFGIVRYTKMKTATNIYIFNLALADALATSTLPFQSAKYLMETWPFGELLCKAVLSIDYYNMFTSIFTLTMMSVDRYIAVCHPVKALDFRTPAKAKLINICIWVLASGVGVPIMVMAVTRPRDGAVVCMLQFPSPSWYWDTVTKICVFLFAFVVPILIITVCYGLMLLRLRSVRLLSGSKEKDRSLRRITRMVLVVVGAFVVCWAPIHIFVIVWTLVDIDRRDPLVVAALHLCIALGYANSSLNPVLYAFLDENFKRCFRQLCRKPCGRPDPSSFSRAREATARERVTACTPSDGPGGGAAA
Mu-type opioid receptor (Rattus norvegicus, UniProt P33535), sequence (P33535 whole entry): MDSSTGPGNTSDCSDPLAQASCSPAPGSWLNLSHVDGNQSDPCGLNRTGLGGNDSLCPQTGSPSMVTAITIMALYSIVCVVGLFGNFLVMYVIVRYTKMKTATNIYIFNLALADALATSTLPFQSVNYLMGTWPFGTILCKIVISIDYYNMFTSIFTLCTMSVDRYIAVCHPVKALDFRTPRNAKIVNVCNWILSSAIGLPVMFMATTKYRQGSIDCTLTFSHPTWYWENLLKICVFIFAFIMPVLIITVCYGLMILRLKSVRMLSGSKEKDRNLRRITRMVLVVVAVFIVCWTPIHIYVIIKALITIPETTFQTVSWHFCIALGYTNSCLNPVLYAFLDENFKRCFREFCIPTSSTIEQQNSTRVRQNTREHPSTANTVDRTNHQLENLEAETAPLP
Delta-type opioid receptor, sequence (P33533 whole entry): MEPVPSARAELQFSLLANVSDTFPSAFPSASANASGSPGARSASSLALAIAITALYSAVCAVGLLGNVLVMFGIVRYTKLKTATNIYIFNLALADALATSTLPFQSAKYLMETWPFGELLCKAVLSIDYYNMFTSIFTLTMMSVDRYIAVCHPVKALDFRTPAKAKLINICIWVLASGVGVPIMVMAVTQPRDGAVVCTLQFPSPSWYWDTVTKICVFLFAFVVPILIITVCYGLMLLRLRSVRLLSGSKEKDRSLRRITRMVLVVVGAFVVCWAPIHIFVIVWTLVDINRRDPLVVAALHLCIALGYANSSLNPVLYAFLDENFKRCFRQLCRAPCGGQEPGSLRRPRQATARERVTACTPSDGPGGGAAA

In the case of `NC(=O)[C@H](Cc1ccccc1)NC(=O)[C@H](Cc1ccccc1)NC(=O)[C@@H]1CCCN1C(=O)[C@@H](N)Cc1ccc(O)cc1` [ENDOMORPHIN 2], the Activity (Mus musculus [1]) is reported as “Dose-Dependent Effect”, the ED50 (Mus musculus [1]) is reported as 6.4 nmol and the ED50 (Mus musculus [2]) is reported as 20.6 nmol. The Activity (Mus musculus [3]) was “inactive”, the half-life [4] was 0.148 h and the Time [5] was 445 s. It also gave an Activity ([6]; at 10 µmol/kg) of 68.8%, a half-life [7] of 0.258 h and a Time [8] of 449 s. For the same molecule, the IC50 (Ileum) was 11.3 nM, the Activity (Mus musculus [9]) was “inactive” and the Activity [10] was “Dose-Dependent Effect”. For the same molecule, the Activity (Mus musculus [11]) was “Active”, the Activity (Mus musculus [12]) was “inactive” and the ED50 (Mus musculus [13]) was 6.4 nmol. The Activity (Mus musculus [14]) was “inactive”, the IC50 (Vas deferens) was 42.9 nM and the Activity (Mus musculus [15]) was “inactive”. For the same molecule, the Activity (Mus musculus [16]) was “inactive”, the Activity (Mus musculus [17]) was “inactive” and the Activity (Mus musculus [18]) was “Tde”.
For `CN1CC[C@]23c4c5ccc(O)c4O[C@H]2[C@@H](O)C=C[C@H]3[C@H]1C5` [MORPHINE], the Activity (Mus musculus [19]) was “Active”, the Time [5] was 447 s and the Activity ([6]; dose 10 µmol/kg) was “Toxic”. For the same molecule, the Time [8] was 451 s, the Activity [20] was “Toxic” and the MPE (Mus musculus [21]) was 41.05%. The Activity [10] was “Dose-Dependent Effect”, the Activity (Mus musculus [22]) was “Active” and the Activity [23] was “Toxic”. For the same molecule, the Activity (Mus musculus [24]) was “Active”.
In the case of `NC(=O)[C@H](Cc1ccccc1)NC(=O)[C@H](Cc1c[nH]c2ccccc12)NC(=O)[C@@H]1CCCN1C(=O)[C@@H](N)Cc1ccc(O)cc1` [ENDOMORPHIN-1], the Activity (Mus musculus [1]) is reported as “Dose-Dependent Effect”, the Activity (Mus musculus [3]) is reported as “inactive” and the Time [5] is reported as 451 s. It also gave an Activity ([6]; at 10 µmol/kg) of 68.1%, a Time [8] of 455 s and an IC50 (Ileum) of 8.73 nM. For the same molecule, the Activity (Mus musculus [9]) was “Active”, the Activity [10] was “Dose-Dependent Effect” and the Activity (Mus musculus [11]) was “Active”. The Activity (Mus musculus [12]) was “Active”, the Activity (Mus musculus [14]) was “inactive” and the IC50 (Vas deferens) was 50.1 nM. The Activity (Mus musculus [15]) was “inactive”, the Activity (Mus musculus [16]) was “inactive” and the Activity (Mus musculus [17]) was “inactive”. The Activity (Mus musculus [18]) was “Tde”.
`N=C(N)NCCC[C@@H](NC(=O)[C@@H](CCCNC(=N)N)NC(=O)CNC(=O)[C@@H]1CSSC[C@H](NC(=O)[C@@H](N)Cc2ccc(O)cc2)C(=O)N[C@@H](Cc2ccccc2)C(=O)N[C@@H](Cc2ccc(Cl)cc2)C(=O)N1)C(=O)O` showed a half-life [4] of 4.47 h, a Ki [25] of over 10000 nM and a half-life [7] of 5.85 h. The Ratio Ki (Rattus norvegicus [26]) was over 149, the IC50 (Ileum) was 102 nM and the Activity [27] was “inactive”. The EC50 (Mu-type opioid receptor [28]) was 202 nM, the Ki (Mu-type opioid receptor [29]) was 67.2 nM and the IC50 (Vas deferens) was 139 nM. For the same molecule, the Activity [30] was “inactive”, the Ratio Ki (Rattus norvegicus [31]) was over 149 and the Emax (Mu-type opioid receptor [32]) was 79.6%.
For `N=C(N)NCCC[C@@H](NC(=O)[C@@H](CCCNC(=N)N)NC(=O)CNC(=O)[C@@H]1CSSC[C@H](NC(=O)[C@@H](N)Cc2ccc(O)cc2)C(=O)N[C@@H](Cc2c[nH]c3ccccc23)C(=O)N[C@@H](Cc2ccccc2)C(=O)N1)C(=O)O`, the half-life [4] was 3.28 h, the Ki [25] was over 10000 nM and the half-life [7] was 4.23 h. For the same molecule, the Ratio Ki (Rattus norvegicus [26]) was 249, the IC50 (Ileum) was 70.2 nM and the Activity [27] was “inactive”. The EC50 (Mu-type opioid receptor [28]) was 160 nM, the Ki (Mu-type opioid receptor [29]) was 40.1 nM and the IC50 (Vas deferens) was 97.5 nM. For the same molecule, the Activity [30] was “inactive”, the Ratio Ki (Rattus norvegicus [31]) was over 249 and the Emax (Mu-type opioid receptor [32]) was 77.2%.
For `N=C(N)NCCC[C@@H](NC(=O)[C@@H](CCCNC(=N)N)NC(=O)CNC(=O)[C@@H]1CSSC[C@H](NC(=O)[C@@H](N)Cc2ccc(O)cc2)C(=O)N[C@@H](Cc2c[nH]c3ccccc23)C(=O)N[C@@H](Cc2ccc(Cl)cc2)C(=O)N1)C(=O)O`, the half-life [4] was 4.57 h, the Ki [25] was over 10000 nM and the half-life [7] was 5.8 h. For the same molecule, the Ratio Ki (Rattus norvegicus [26]) was over 145, the IC50 (Ileum) was 97.4 nM and the Activity [27] was “inactive”. It also gave an EC50 (Mu-type opioid receptor [28]) of 189 nM, a Ki (Mu-type opioid receptor [29]) of 68.9 nM and an IC50 (Vas deferens) of 138 nM. For the same molecule, the Activity [30] was “inactive”, the Ratio Ki (Rattus norvegicus [31]) was over 145 and the Emax (Mu-type opioid receptor [32]) was 80.6%.
With `N=C(N)NCCC[C@@H](NC(=O)[C@@H](CCCNC(=N)N)NC(=O)CNC(=O)[C@@H]1CSSC[C@H](NC(=O)[C@@H](N)Cc2ccc(O)cc2)C(=O)N[C@@H](Cc2ccccc2)C(=O)N[C@@H](Cc2ccccc2)C(=O)N1)C(=O)O` the half-life [4] was 3.6 h, the Ki [25] was over 10000 nM and the half-life [7] was 4.12 h. The Ratio Ki (Rattus norvegicus [26]) was 221, the IC50 (Ileum) was 74.6 nM and the Activity [27] was “inactive”. For the same molecule, the EC50 (Mu-type opioid receptor [28]) was 154 nM, the Ki (Mu-type opioid receptor [29]) was 45.3 nM and the IC50 (Vas deferens) was 108 nM. The Activity [30] was “inactive”, the Ratio Ki (Rattus norvegicus [31]) was over 221 and the Emax (Mu-type opioid receptor [32]) was 79.7%.
